# Measured values from patent US8057829B2, “Methods for repelling insects using sesquiterpene hydrocarbons and their derivatives” (Sterling International Inc., priority 2008, dated 2011).
# How the values were obtained:
# [1] = test system: antennae of Musca domestica, Lucillia sericata, Sarcophaga sp., Muscina stabulans, Culex pipiens, Aedes increpitus; experiment: GC-EAD responses of several flies and two mosquitoes to a synthetic mixture; conditions: about 100 ng of each compound, FIG. 6
# Experimental: The GC-EAD responses of several species of flies and two species of mosquito antennae were tested on a synthetic mixture of 1-octen-3-ol, linalool, two representative sesquiterpene hydrocarbons, β-caryophyllene and α-humulene, ZE-nepetalactone, EZ-nepetalactone, and two known insect repellents, DEET, and SS220, with about 100 ng of each compound in the mixture. DEET and SS220 are used as positive controls in the experiment. The compound 1-octen-3-ol is a known attractant for the insects and is also used as a positive control. The insects tested are species of Musca domestica, Lucillia sericata, Sarcophaga sp., Muscina stabulans, Culex pipiens, and Aedes increpitus.
# (§1) The following procedures were employed to test the EAD response of an insect antenna to a repellent compound. The GC-EAD technique provides an efficient tool for screening behaviorally active repellents. Several synthetic mixtures of potential insect repellent candidates, mostly sesquiterpene hydrocarbons and derivatives, were analyzed in splitless mode using a Varian CP-3800 GC equipped with a polar column (Innowax; 1.0 μm film thickness, 30 m×0.53 mm ID; J & W Scientific), and a 1:1 effluent splitter that allowed simultaneous flame ionization detection (FID) and EAD of the separated volatile compounds. Helium was used as the carrier gas, and the injector temperature was 220° C. The column temperature was 50° C. for 2 min, rising to 240° C. at 10° C./min, then held for 10 min. The outlet for the EAD was held in a humidified air stream flowing at 0.5 liter/min. over an antennal preparation. A glass capillary indifferent electrode filled with Beadle-Ephrussi Ringer, and grounded via a silver wire, was inserted into the severed insect's head with the antennae. A similar recording electrode connected to a high-impedance DC amplifier with automatic baseline drift compensation was placed in contact with the distal end of one antenna (Zhang et al., Chemoecology, 10:69-80 (2000)). The antennal signals were stored and analyzed on a PC equipped with a serial IDAC interface box and the program EAD ver. […]
# [2] = test system: antennae of housefly, sand fly, and mosquitoes Aedes aegypti, Anopheles gambiae, Anopheles stephensi; experiment: GC-EAD antennal responses to SPME samples of clove essential oil; conditions: component of clove essential oil SPME sample; response by one or more of the insects; FIG. 1
# Experimental: The GC-EAD antennal response of a female housefly (Musca domestica), sand fly (Phlebotomus papatasi), and mosquitoes including the species Aedes aegypti, Anopheles gambiae, and Anopheles stephensi were tested with clove essential oil. FIG. 1 is a simultaneous recording of GC flame ionization detection (FID) and electroantennographic detection (EAD) of the insect antennae to solid phase microextraction (SPME: CAR/PDMS) samples of clove essential oil in a 20 ml glass vial for 20 sec.
# as §1, with “ver. 2.5 (Syntech, Hilversum, The Netherlands). The compound 1-octen-3-ol (known attractant for many flies and mosquitoes) was included in most of the synthetic mixtures, as a positive control.” for “ver.”
# [3] = test system: antennae of housefly, sand fly, and mosquitoes (Aedes aegypti, Aedes increpitus, Anopheles gambiae); experiment: GC-EAD antennal responses to SPME samples of patchouli essential oil; conditions: component of patchouli essential oil SPME sample; response by one or more of the insects; FIG. 2
# Experimental: (§2) The following procedures were employed to test the EAD response of an insect antenna to a repellent compound. The GC-EAD technique provides an efficient tool for screening behaviorally active repellents. Several synthetic mixtures of potential insect repellent candidates, mostly sesquiterpene hydrocarbons and derivatives, were analyzed in splitless mode using a Varian CP-3800 GC equipped with a polar column (Innowax; 1.0 μm film thickness, 30 m×0.53 mm ID; J & W Scientific), and a 1:1 effluent splitter that allowed simultaneous flame ionization detection (FID) and EAD of the separated volatile compounds. Helium was used as the carrier gas, and the injector temperature was 220° C. The column temperature was 50° C. for 2 min, rising to 240° C. at 10° C./min, then held for 10 min. The outlet for the EAD was held in a humidified air stream flowing at 0.5 liter/min. over an antennal preparation. A glass capillary indifferent electrode filled with Beadle-Ephrussi Ringer, and grounded via a silver wire, was inserted into the severed insect's head with the antennae. A similar recording electrode connected to a high-impedance DC amplifier with automatic baseline drift compensation was placed in contact with the distal end of one antenna (Zhang et al., Chemoecology, 10:69-80 (2000)). The antennal signals were stored and analyzed on a PC equipped with a serial IDAC interface box and the program EAD ver. 2.5 (Syntech, Hilversum, The Netherlands). The compound 1-octen-3-ol (known attractant for many flies and mosquitoes) was included in most of the synthetic mixtures, as a positive control.
# [4] = test system: male false stable fly Muscina stabulans antenna and female mosquito Aedes (Ochlerotatus) increpitus Dyar antenna; experiment: GC-EAD responses of false stable fly and Aedes increpitus to a synthetic mixture; conditions: about 100 ng of each compound, FIG. 5
# Experimental: The GC-EAD responses of the male false stable fly Muscina stabulans antenna and the female mosquito Aedes (Ochlerotatus) increpitus Dyar antenna were tested on a synthetic mixture of linalool and two representative sesquiterpene hydrocarbons, β-caryophyllene and α-humulene, and one sesquiterpene oxide, β-caryophyllene oxide, with about 100 ng of each compound in the mixture.
# as §2, with “control. The results of the experiments are shown in FIGS. 1-10 and described above.” for “control.”
smiles,measurement,setting,value
"C=C1CC/C=C(\C)CC[C@@H]2[C@@H]1CC2(C)C [β-Caryophyllene, β-caryophyllene]",GC-EAD antennal activity,[1],active on at least one of the insects tested
same,GC-EAD antennal activity,[2],EAD-active
same,GC-EAD antennal activity,[3],elicited EAD-activity
same,GC-EAD antennal activity,[4],active on at least one of the insects tested
